Laboratory results: US20220065865A1, “METHODS OF TREATMENT AND DIAGNOSIS OF TUMOURS” (UEA ENTERPRISES LIMITED, priority 2018, published 2022)

Key:
[1] = system: chondrosarcoma tumour spheres (SW1353); experiment: Small molecule treatment of chondrosarcoma tumour spheres, nuclei counted by DAPI staining; assay type: cell-based, human; conditions: bone 3D tumour spheres; for cancer cell number in comparison with Control 1: 72 hours, Control 1 = 0.1% DMSO
Experimental: (§1) SW1353 (chondrosarcoma) cells were cultured in 1:1 DMEM/F-12 Supplement (Thermo Fisher Scientific) containing 10% (volume/volume) fetal bovine serum (Sigma Aldrich). Cells were fed with culture medium every other day and maintained at 37° C. in a […] atmosphere of 5% CO2. Cells were obtained from ATCC and authenticated by STR profiling. Cells were regularly monitored for Mycoplasma infection by PCR. Phenotypic checks for interleukin 1 response ensured cell phenotype was maintained.
For the experiment reported in FIG. 8(b) the culture medium additionally contained 1% (v/v) penicillin streptomycin.
(§2) Tumour spheres were constructed as previously described (Greco, K. V. et al. High density micromass cultures of a human chondrocyte cell line: a reliable assay system to reveal the modulatory functions of pharmacological agents. Biochem Pharmacol 82, 1919-29 (2011), the contents of which are incorporated herein by reference). Briefly, 80% confluent monolayer cell cultures were released by trypsin-EDTA and resuspended in growth medium at a density of 4.1×10^4 cells/mL. Tumour spheres were achieved by pipetting 20 μL of cell suspension into individual wells of 24 well plates. Following a 3 hour intermolecular cohesion period 500 μL of growth medium was gently added. Cultures formed three dimensional spheres over the next 24 hours.
Growth media on chondrosarcoma tumour spheres was replaced with fresh media containing 0.1% DMSO (control 1), fresh media containing 0.2% DMSO (control 2), fresh media containing 50 μM small molecule 3-(N-(3,4-dichlorophenyl)carbamoyl)-5-norbornene-2-carboxylic acid, also named 3-{[(3,4-dichlorophenyl)amino]carbonyl}bicyclo[2.2.1]hept-5-ene-2-carboxylic acid, known as CADD522, fresh media containing 100 μM small molecule (CADD522). […] DAPI fluorescence was excited at 365 nm and emission collected between 420 and 470 nm. Nuclear DAPI staining was segmented with the number of the nuclei quantified using ImageJ. […] Statistical significance ([…]) was calculated using an unpaired t test with Prism 6.

RUNX2 = experiment: qPCR transcriptional profiling of transfected tumour spheres: RUNX2; assay type: cell-based, human; conditions: 50 nM mimic, pooled RNA of 6 replicates, normalised to ACTB, compared to control tissue
Experimental: (§3) Once tumour spheres had formed, tRF mimics (RNA), tRF inhibitors (LNA), miRNA mimics (LNA) and miRNA inhibitors (LNA) (Exiqon) were transfected using Lipofectamine 3000 (Thermo Fisher Scientific) in reduced serum media (Thermo Fisher Scientific) for a final concentration of 50 nM consisting of equal parts of each mimic or inhibitor (sequences in Table 1 above). Confirmation of cell entry at 50 nM concentration was determined after performing the transfection with FAM labelled sequences. After 6 hours of incubation reduced serum media containing mimics or inhibitors was replaced with fresh growth media. Tumour spheres were subjected to histology, fluorescence microscopy and transcriptional profiling 48 hours later. Transfections were performed in triplicate in 3 independent experiments.
(§4) We used qPCR as previously described (Fricke, C., Green, D., Smith, D., Dalmay, T. & Chapman, T. MicroRNAs influence reproductive responses by females to male sex peptide in Drosophila melanogaster. Genetics 198, 1603-19 (2014), the contents of which are incorporated herein by reference). Due to a limited amount of RNA, qPCR was performed on pools of control tissue, low grade, intermediate grade and high grade tumours. We also extracted and pooled RNA from 6 replicates of tumour spheres treated with a tRF-Gly-TCC mimic. […]

YBX1 [2] = biological target: YBX1 (Homo sapiens, UniProt P67809); conditions: Goodarzi et al., Cell 161, 790-802 (2015); cited from earlier work
Sequence of YBX1 (Homo sapiens, UniProt P67809) (P67809 whole entry): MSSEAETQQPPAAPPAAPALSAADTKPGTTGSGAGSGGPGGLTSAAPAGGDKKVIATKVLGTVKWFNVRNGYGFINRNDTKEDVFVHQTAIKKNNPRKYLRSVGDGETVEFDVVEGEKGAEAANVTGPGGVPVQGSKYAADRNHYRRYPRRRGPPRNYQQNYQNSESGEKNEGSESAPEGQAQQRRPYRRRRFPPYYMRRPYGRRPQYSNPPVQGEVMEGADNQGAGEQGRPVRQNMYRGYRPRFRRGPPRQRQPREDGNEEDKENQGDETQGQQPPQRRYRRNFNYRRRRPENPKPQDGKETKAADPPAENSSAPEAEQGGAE

YBX1 [3] = experiment: qPCR transcriptional profiling of transfected tumour spheres: YBX1; assay type: cell-based, human; conditions: 50 nM mimic, pooled RNA of 6 replicates, normalised to ACTB
Experimental: as §3, §4

PTHLH = experiment: qPCR transcriptional profiling of transfected tumour spheres: PTHLH; assay type: cell-based, human; conditions: 50 nM mimic, pooled RNA of 6 replicates, normalised to ACTB
Experimental: as §3, §4

SOX9 = experiment: qPCR transcriptional profiling of transfected tumour spheres: SOX9; assay type: cell-based, human; conditions: 50 nM mimic, pooled RNA of 6 replicates, normalised to ACTB, compared to control tissue
Experimental: as §3, §4

ANG = experiment: qPCR transcriptional profiling of transfected tumour spheres: ANG; assay type: cell-based, human; conditions: 50 nM mimic, pooled RNA of 6 replicates, normalised to ACTB
Experimental: as §3, §4

TP53 = experiment: qPCR transcriptional profiling of transfected tumour spheres: TP53; assay type: cell-based, human; conditions: 50 nM mimic, pooled RNA of 6 replicates, normalised to ACTB, compared to control tissues
Experimental: as §3, §4

[4] = system: chondrosarcoma tumour spheres (SW1353); experiment: Tumour sphere assay with LNA and RNA transfection, histology and fluorescence microscopy; assay type: cell-based, human; conditions: 50 nM, 48 hours after transfection
Experimental: as §1
as §2, with “Following a 3 hour intermolecular cohesion period 500 μL of growth medium was gently added. Cultures formed three dimensional spheres over the next 24 hours.” left out
as §3, with “After 6 hours of incubation reduced serum media containing mimics or inhibitors was replaced with fresh growth media.” left out, “Transfections were performed in triplicate in 3 independent experiments.” left out
Tumour spheres were fixed in 3.7% formaldehyde and treated with 0.2% Triton-X 100. […] DAPI fluorescence was excited at 365 nm and emission collected between 420 and 470 nm. Texas Red-X Phalloidin fluorescence was excited at 558 nm and emission collected through a 615 nm LP filter. Nuclear DAPI staining was segmented with the number and size of the nuclei quantified using ImageJ.

IHH = experiment: qPCR transcriptional profiling of transfected tumour spheres: IHH; assay type: cell-based, human; conditions: 50 nM mimic, pooled RNA of 6 replicates, normalised to ACTB
Experimental: as §3, §4

HDAC4 = experiment: qPCR transcriptional profiling of transfected tumour spheres: HDAC4; assay type: cell-based, human; conditions: 50 nM mimic, pooled RNA of 6 replicates, normalised to ACTB, compared to high grade tumours
Experimental: as §3, §4

Compound: O=C(O)C1C2C=CC(C2)C1C(=O)Nc1ccc(Cl)c(Cl)c1 (stereo not shown) [CADD522, 3-(N-(3,4-dichlorophenyl)carbamoyl)-5-norbornene-2-carboxylic acid]
- cancer cell number in comparison with Control 1 ([1]; 50 μM): about 70%
- cancer cell number in comparison with Control 1 ([1]; 100 μM): about 30%
- cancer cell number compared to controls ([1]; two biological replicate controls, unpaired t test): significant reduction of cancer cell number

Compound: TRF-Gly-TCC: endogenous tRNA derived fragment containing a SCUBYC sequence motif (GCGUUGGUGGUAUAGUGGUGAGCAUAGCUGCC; listed as RNA, chemistry not fully specified)
- RUNX2 mean relative expression (RUNX2): reduces RUNX2 expression to control levels
- binding to YBX1 (YBX1 [2]): substantial binding
- YBX1 mean relative expression (YBX1 [3]): increased expression

Compound: tRF-Gly-TCC mimic: RNA mimic, sequence GCGUUGGUGGUAUAGUGGUGAGCAUAGCUGCC (listed as RNA, chemistry not given here)
- RUNX2 mean relative expression (RUNX2): reduced to the same level of expression as control tissue
- PTHLP expression (PTHLH): lost
- SOX9 mean relative expression (SOX9): remains at a reduced expression
- ANG mean relative expression (ANG): greatly reduced
- TP53 mean relative expression (TP53): reduces to be consistent with control tissues
- decrease in nuclear area compared to untreated tumour spheres [4]: more than two-fold decrease in nuclear area
- phenotypic effect (nuclear and F-actin histology, inverted microscopy) [4]: low cancer cell number, shrunken nuclei and visible changes to morphology
- nuclear area of tumour spheres ([4]; n=47 nuclei, untreated 488±12.4 μm^2 (n=230)): 215±16.8 μm^2
- IHH mean relative expression (IHH): greatly reduced
- HDAC4 mean relative expression (HDAC4): increases further
